Consider one compound from patent US20250186439A1, “PYK2 INHIBITION MODULATES IMMUNE CELL FUNCTION” (The Children's Medical Center Corporation, priority 2022, published 2025).

What all share (format): cell-based, mouse
For test [1], the system named is MG6 cells. Nature of the test: Proliferation of FACS-sorted mono-/multinuclear MG6 cells. To be noted: 1000 nM, 24 h pretreatment. The protocol:
FIGS. 7A-7D. Pyk2 inhibition promotes the phagocytotic activity and inflammatory responses in microglia. FIG. 7A: Quantification of the effect of Pyk2 inhibitor treatment on proliferation of mononucleated and multinucleated MG6 cells. MG6 cells were pretreated with 1000 nM Pyk2 inhibitor for 24 hours and mono-/multi-nuclear cells were isolated and collected by fluorescent activated cell sorting. […] There is no difference in proliferation of mononuclear cells after Pyk2 inhibitor treatment compared to untreated control cells. FIG. 7B: Fluorescent imaging depicting the effect of Pyk2 inhibitor on phagocytosis of mononucleated and multinucleated MG6 cells. […] FIG. 7C: Quantification of phagocytosis of mononucleated and multinucleated MG6 cells over time. […] Fluorescence intensity was measured by fluorescence microplate reader at excitation/emission wavelengths of 560/580 nm. […] FIG. 7D: Quantification of the effect of Pyk2 inhibitor treatment on cytokine/chemokine levels of mononucleated and multinucleated MG6 cells. The relative mRNA levels of IL-6, IL-1β, IL-10, and TGF-β were measured by a real-time PCR (qPCR). Measured mRNA transcript levels are reported as the mean level±standard deviation (n=3; *: p-value<0.05; **: p-value <0.01; ***: p-value <0.005; ****: p-value <0.001; and *****: p-value <0.0005). […]

Test [2] has as its system MG6 cells. Nature of the test: Phagocytosis of Hilite-555 labelled Aβ42 by MG6 cells. To be noted: 24 h inhibitor, Hilite-555 labelled Aβ42 500 ng/mL; listed as Pyk2 inhibitor. As for the experimental part:
FIGS. 5A-5D. Characteristics of Pyk2 inhibition on phagocytotic activity in microglia. FIG. 5A: Immunofluorescent imaging depicting phagocytosis of pHrodo Red E. coli BioParticles by MG6 cells after exposure to Pyk2 inhibitors. MG6 cells were either untreated (left) or treated with 1000 nM Pyk2 inhibitor treatment for 24 hours (right). Immunofluorescent images were obtained via confocal microscopy (×600). MG6 cells were fixed and stained with phalloidin-AlexaFluor488 to visualize actin, and with DAPI to visualize nuclei (encircled). Scale bar is 20 μm. […] FIG. 5B: Immunofluorescent imaging depicting phagocytosis of pHrodo Red E. coli BioParticles by mononucleated and multinucleated MG6 cells after exposure to Pyk2 inhibitors. MG6 cells were treated and imaged as in FIG. 5A. After obtaining three-dimensional images, BioParticles are quantified by a spot analysis using IMARIS software (bottom figures). FIG. 5C: Quantification of spot analysis in FIG. 5B. The output of IMARIS spot analysis was analyzed using one-way ANOVA. […] FIG. 5D: Phagocytotic activity for Aβ in MG6 cells. Immunostaining for Iba1 and Aβ in control and Pyk2 inhibitor treated group. MG6 cells were treated with Pyk2 inhibitor or vehicle for 24 hours and then Hilite-555 labelled Aβ42 was added for 24 hours. Data are representative images of four wells from three independent experiments. […]

For another test, the system named is Lamp1. Description: Immunoblot of Lamp1 (lysosomal activity) in MG6 cells. Particulars: 1000 nM, under β-amyloid stimulation. As for the experimental part:
FIGS. 6A and 6B. Responses of lysosomal function in microglia to β-amyloid stimulation. FIG. 6A: Immunoblots of MG6 cells after treatment with Pyk2 inhibitor and β-amyloid oligomers. Cells were pretreated with 100 ng/mL CSF-1 and 1000 nM Pyk2 inhibitor (PF431396) for 24 hours as indicated, then cell lysates were harvested after treatment with 500 ng/mL β-amyloid for 24 hours (lanes 4-6). MG6 cell lysates were subjected to immunoblotting of phosphorylated Pyk2 (p-Pyk2), Lamp1, Erk, and phosphorylated Erk (p-Erk). Tubulin was used as a loading control. FIG. 6B: Quantification of immunoblotting depicted in FIG. 6A. Ratios of p-Pyk2/Pyk2, Lamp1/Tubulin, and p-Erk/Erk were calculated for MG6 cells pretreated with CSF-1 and a Pyk2 inhibitor, as indicated.
To assess lysosomal activity, Pyk2 inhibitor treated MG6 cells were also exposed to a disease-relevant substrate, β-amyloid protein, which is associated with progressive loss of neuronal function during Alzheimer's disease. After 24 hours of treatment with β-amyloid, control and Pyk2 inhibitor treated MG6 cells were collected, lysed, and immunoblotted in order to determine the relative protein levels of Pyk2, phosphorylated Pyk2, Lamp1, Erk, phosphorylated Erk, and tubulin (FIGS. 6A and 6B). […] However, in the presence of β-amyloid protein, an increase in Lamp1 was observed following treatment with Pyk2 inhibitor.
(In general: In western blotting, separated proteins are transferred to a membrane and probed.)

“Also recorded” adds a separate entry of the source.

On to `CN(c1ccccc1CNc1nc(Nc2ccc3c(c2)CC(=O)N3)ncc1C(F)(F)F)S(C)(=O)=O` [PF-431396], for which the “proliferation of sorted mononucleated MG6 cells vs untreated” value with MG6 cells [1] is listed as “no difference”. In addition, in the test on MG6 cells [1] (listed as Pyk2 inhibitor), the “proliferation of sorted multinucleated MG6 cells” value is reported as “slightly increased; also recorded: increased level”. The “phagocytosis of Aβ42” value in the test on MG6 cells [2] is “increased phagocytosis; also recorded: significantly higher”. Moreover, the “Lamp1 (lysosomal activity)” value with Lamp1 was “increased”; with Lamp1 (listed as Pyk2 inhibitor), “increase”.
